Values of other authors in patent US20050013858A1, “Oral pharmaceutical compositions containing terbinafine” (priority 2001, published 2005).

Experiments:
CYP2D6 = CYP2D6 (Homo sapiens, UniProt P10635)
[1] = steady state, in comparison to the single dose

Sequence of CYP2D6 (P10635 whole entry): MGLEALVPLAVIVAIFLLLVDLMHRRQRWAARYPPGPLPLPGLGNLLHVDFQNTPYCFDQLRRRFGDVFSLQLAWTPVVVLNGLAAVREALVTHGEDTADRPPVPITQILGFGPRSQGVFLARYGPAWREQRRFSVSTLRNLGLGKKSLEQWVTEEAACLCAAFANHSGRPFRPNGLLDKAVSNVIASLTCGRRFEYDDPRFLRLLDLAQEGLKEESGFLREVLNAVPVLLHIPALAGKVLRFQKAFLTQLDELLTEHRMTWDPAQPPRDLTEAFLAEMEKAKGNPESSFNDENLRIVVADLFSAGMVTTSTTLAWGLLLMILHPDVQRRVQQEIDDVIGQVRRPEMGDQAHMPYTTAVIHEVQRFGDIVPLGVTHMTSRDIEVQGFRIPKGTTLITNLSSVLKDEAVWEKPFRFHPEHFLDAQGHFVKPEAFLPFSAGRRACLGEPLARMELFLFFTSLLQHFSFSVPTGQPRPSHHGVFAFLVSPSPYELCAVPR

CN(C/C=C/C#CC(C)(C)C)Cc1cccc2ccccc12 [terbinafine]
inhibition of CYP2D6 (CYP2D6): potent inhibitor
increase in AUC (administered with a fat-rich meal): 42%
effective half-life (in vivo): ca. 36 hours
reduction of clearance (patients with renal impairment (creatinine clearance ≤50 ml/min) or hepatic cirrhosis): approximately 50%
area under the curve over 24 hours (AUC) (single 250 mg terbinafine dose): about 4.76 microgram.hour/millilitre
factor of AUC increase in steady state versus single dose [1]: 2.5
increase of Cmax in steady state versus single dose [1]: 25%
